Data reported in ChEMBL document CHEMBL2010681, “Synthesis and SAR study of 4-arylpiperidines and 4-aryl-1,2,3,6-tetrahydropyridines as 5-HT₂C agonists” (Bioorg Med Chem Lett, 2012).

Experiments:
[1] = target: T1, 5-hydroxytryptamine receptor 2C (Homo sapiens) (UniProt P28335); test: Displacement of [3H]-mesulergine from 5HT2C receptor expressed in CHO cell membranes at 1 uM after 90 mins by scintillation counting
T1 sequence (whole entry): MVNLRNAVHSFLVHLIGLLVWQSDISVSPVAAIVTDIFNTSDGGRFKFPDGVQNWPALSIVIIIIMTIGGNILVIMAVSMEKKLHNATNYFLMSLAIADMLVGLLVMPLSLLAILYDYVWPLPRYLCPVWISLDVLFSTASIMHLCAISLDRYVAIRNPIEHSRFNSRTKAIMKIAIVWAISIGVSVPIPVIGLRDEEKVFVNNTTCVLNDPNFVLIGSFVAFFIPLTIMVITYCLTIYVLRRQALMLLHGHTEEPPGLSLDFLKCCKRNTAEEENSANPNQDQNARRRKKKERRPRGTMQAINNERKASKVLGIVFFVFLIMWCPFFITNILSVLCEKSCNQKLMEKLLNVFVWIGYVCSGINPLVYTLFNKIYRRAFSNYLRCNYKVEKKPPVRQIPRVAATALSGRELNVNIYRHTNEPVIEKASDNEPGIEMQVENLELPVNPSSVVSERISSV

[2] = target: T2, 5-hydroxytryptamine receptor 2C (Homo sapiens, UniProt P28335); test: Agonist activity at 5HT2C receptor expressed in CHO cells by fluorescence based calcium mobilization assay; format: functional, cell-based
T2 sequence (P28335 whole entry): T1 sequence (whole entry)

[3] = target: T2, 5-hydroxytryptamine receptor 2C; test: Displacement of [3H]-mesulergine from 5HT2C receptor expressed in CHO cell membranes after 90 mins by scintillation counting
[4] = target: T1, 5-hydroxytryptamine receptor 2C (Homo sapiens); test: Displacement of [3H]-mesulergine from 5HT2C receptor expressed in CHO cell membranes at 10 uM after 90 mins by scintillation counting
[5] = target: T2, 5-hydroxytryptamine receptor 2C; test: Displacement of [3H]-mesulergine from 5HT2C receptor expressed in CHO cell membranes using 11 concentration of ligand after 90 mins by scintillation counting using complete competition binding curves analysis

Compound | inhibition [1] | EC50 ([2]; cho) | Ki [3] | inhibition [4] | Ki [5] | EC50 ([2]; read-out: EC50)
COc1ccccc1C1CCNCC1.Cl | 23% | Not Active | 1800 nM | 74% | – | –
O=C(O)C(F)(F)F.c1cc2c(c(C3CCNCC3)c1)CCCC2 | – | Not Active | 55 nM | – | 43 nM | –
FC(F)(F)c1cccc(C2CCNCC2)c1 | 26% | – | 1550 nM | 77% | – | 1260 nM
c1ccc2c(C3CCNCC3)c[nH]c2c1 | 60% | – | 366 nM | 92% | 612 nM | 128 nM
Cl.Clc1ccc(C2CCNCC2)cc1 | – | Not Active | > 10000 nM | – | – | –
Cl.Fc1ccc(C2CCNCC2)cc1 | – | Not Active | > 10000 nM | – | – | –
Cl.FC(F)(F)c1ccc(C2CCNCC2)cc1 | – | Not Active | 8320 nM | – | – | –
Cl.Oc1cccc(C2CCNCC2)c1 | – | Not Active | > 10000 nM | – | – | –
Cl.Clc1ccccc1C1CCNCC1 | – | Not Active | – | – | – | –
Clc1cccc(C2=CCNCC2)c1 | 65% | – | 280 nM | 95% | 318 nM | 72.3 nM
C1=C(c2ccccc2)CCNC1 | 9% | – | 7180 nM | 42% | – | 2450 nM
O=C(O)C(F)(F)F.c1ccc2c(C3CCNCC3)cccc2c1 | – | Not Active | 60 nM | – | 72 nM | –
Cc1ccccc1C1CCNCC1.Cl | 10% | Not Active | 3170 nM | 65% | – | –
Cc1cccc(C2CCNCC2)c1C.Cl | – | Not Active | 1160 nM | – | – | –
Cc1cccc(C2CCNCC2)c1 | 15% | – | 3130 nM | 63% | – | 2000 nM
Cl.c1ccc(C2CCNCC2)cc1 | 6% | Not Active | > 10000 nM | 16% | – | –
FC(F)(F)c1cccc(C2=CCNCC2)c1 | 65% | – | 298 nM | 93% | 365 nM | 158 nM
Clc1ccc(C2=CCNCC2)cc1 | 17% | – | 3100 nM | 62% | – | 1760 nM
Brc1ccc(C2=CCNCC2)cc1 | 22% | – | 2540 nM | 65% | – | 3520 nM
Clc1cccc(C2CCNCC2)c1 | 37% | – | 931 nM | 83% | 1430 nM | 790 nM
C1=C(c2c[nH]c3ccccc23)CCNC1 | 64% | – | 296 nM | 95% | 632 nM | 163 nM
Cl.FC(F)(F)c1ccccc1C1CCNCC1 | – | Not Active | 826 nM | – | – | –
COc1cccc(C2CCNCC2)c1.Cl | – | Not Active | 6190 nM | – | – | –
COc1ccc(C2CCNCC2)cc1.Cl | 3% | Not Active | > 10000 nM | 9% | – | –
CN(C)c1ccc(C2CCNCC2)cc1.Cl | – | Not Active | > 10000 nM | – | – | –
Clc1ccccc1C1=CCNCC1.O=C(O)C(F)(F)F | – | Not Active | – | – | – | –
Cc1ccc(C2CCNCC2)cc1.Cl | 9% | Not Active | > 10000 nM | 33% | – | –
